Source: patent publication US9180164B2, “Compounds and methods of modulating angiogenesis” (THE CLEVELAND CLINIC FOUNDATION, priority 2011, dated 2015)
Where two headings read alike, the source gives them in different places.

Key:
[1] = tested on: mouse lung endothelial cells; conditions: 20 ng/ml VEGF, 8 h
Procedure: The formation of vascular tube-like structures by wild type and DiYF mouse lung endothelial cells were assessed on the basement membrane matrix preparation. Six well plates were coated with 0.5 ml of Matrigel according to the manufacturer's instructions. Wild type and DiYF mouse lung endothelial cells were detached from the tissue culture flasks using 20 mM EDTA. Cells were washed twice with sterile 1×PBS and seeded on Matrigel coated plate. Medium was supplemented with or without 20 ng/ml VEGF and further incubated at 37° C. for 8 h. The tube formation was observed using an inverted phase contrast microscope (Leica) and photographs were taken from each well. Using ImagePro software, the degree of tube formation was quantified by measuring the length of tubes in random fields.

[2] = tested on: mouse lung endothelial cells; conditions: WT EC, vitronectin
Procedure: Transwell tissue culture inserts were coated with various integrin ligands for 24 h at 4° C. Both WT and DiYF lung endothelial cells were trypsinized and 1×10^5 cells were added into each well. The lower chamber contained varying concentrations of VEGF-A165 (0-20 ng/ml). Cells were allowed to migrate for 12 h and fixed with 3.7% formaldehyde/PBS for 15 min and stained with 0.5% crystal violet. The non-migrated cells adhered to the top surface were removed and three random 10× fields were photographed using Leica inverted phase contrast microscope.

[3] = tested on: αvβ3 integrin; experiment: WOW-1 binding assay, HUVECs; assay type: cell-based, Human; conditions: FACS analysis
Procedure: Semiconfluent HUVECs were serum starved for 4 h and further stimulated with 20 ng/mL VEGF-A165 or VEGFDΔNΔC. WOW-1 Fab was added to a final concentration of 30 μg/mL, followed by addition of FITC-conjugated goat anti-mouse IgG at 10 μg/mL. After 30 min cells were fixed with 3.7% formaldehyde in PBS for 15 min, washed twice with PBS, and fluorescence-activated cell sorting (FACS) was performed using a FACS Calibur (Becton Dickinson, San Jose, Calif.) and data were analyzed using CellQuest software.

## VEGF
[1]; DiYF EC
  effect on length of the tubes: a little effect
[1]; WT EC
  increase in the length of the tubes: about 3 fold
[2]; 5 ng/ml
  increase of migration compared to untreated EC: 1.5 fold
[2]; 10 ng/ml
  increase of migration compared to untreated EC: 2.5 fold
[2]; 20 ng/ml
  increase of migration compared to untreated EC: 2.9 fold
[3]
  increase of WOW-1 binding to EC compared to resting cells: 6 fold
